Patent publication US10213422B2, “Compositions and methods of inhibiting histone deacetylases” (YALE UNIVERSITY, priority 2014, dated 2019)

Columns and labels:
[1] = pulmonary artery banding, previous study; cited from earlier work
[2] = system: human coronary artery endothelial cells; assay: Caspase 3 cleavage in human coronary artery endothelial cells; assay type: cell-based
[3] = system: HDAC4-GFP; settings: PAH PAECs, apelin 1 μM for 1 h
Procedure: (§1) For the apelin effect on HDAC4/5 translocation, PAECs plated on glass bottom culture dish (Mat-Tek) were transfected with GFP-tagged HDAC4 and HDAC5 expression vectors for 24 hours. Cells were imaged using a Nikon Eclipse Ti confocal microscopy before and after treatment with apelin 13 (1 μM for 1 h at 37° C.).

[4] = system: HDAC5-GFP; settings: PAH PAECs, apelin 1 μM for 1 h
Procedure: as §1

[5] = system: HDAC5; settings: PAH PAECs, apelin 1 μM for 1 h
Procedure: (§2) Western blotting was performed as previously described (eriosclerosis, thrombosis, and vascular biology 31, 814-820 (2011)). Each western blot is representative of three independent experiments done in triplicate. For the generation of cell lysates, lysis buffer (RIPA, Thermo Scientific) containing a protease and phosphatase inhibitor cocktail (Halt Protease and Phosphatase Inhibitor, Thermo Scientific) was used. Protein contents were measured using a detergent-compatible protein concentration assay (DC™ assay, Bio-Rad).

[6] = system: HDAC4; settings: PAH PAECs, apelin 1 μM for 1 h
Procedure: as §2

[7] = system: MEF2; settings: PAH PAECs, apelin 1 μM for 24 h
Procedure: Either control PAECs or PAH PAECs were transfected and lysed in lysis buffer (Promega). Renilla luciferase was used for normalization. Dual Luciferase Reporter System (Promega) was used according to the manufacturer's protocol. All experiments were performed three times in triplicates.

[8] = system: rats with experimental pulmonary hypertension; assay: Experimental pulmonary hypertension models in rats (MCT and SU-5416/hypoxia): hemodynamic, morphometric and cardiac analyses; assay type: in vivo, rat; settings: for right ventricular hypertrophy (right ventricle to left ventricle plus septum weight ratios): SU5416/hypoxia, vs. control; for right ventricular systolic pressures: SU-5416/hypoxia, vs. DMSO
Procedure: Rat lung tissues were fixed and stained as previously described (Nature medicine 19, 74-82 (2013)). Standard methods (Trichrome Stain, Sigma) were used to stain for collagen in cardiac sections.
(§3) Male Sprague Dawley rats (200-250 g; Charles River Laboratories) were subcutaneously injected with monocrotaline (Sigma) (60 mg per kg body weight) for the MCT model. For the SUGEN model, SU-5416 (Sigma) was resuspended in DMSO (Sigma) and injected subcutaneously (20 mg per kg body weight). Rats were subsequently exposed to hypoxia (10% FiO2) for 2 weeks. Rats were given intraperitoneal administration of either the vehicle (DMSO), MC1568 (Sellek Chemicals and DC Chemicals) (50 mg per kg body weight), TMP269 (DC Chemicals) (intraperitoneal injection of 50 mg/kg/day for two weeks), or Tasquinimod (DC Chemicals) (oral gavage of 10 mg/kg/day for two weeks) daily as indicated (FIG. 13).
Right ventricular systolic pressure (RVSP) measurements were performed at the designated time points under isoflurane by inserting a catheter (Millar Instruments) into the right jugular vein as described previously.^21 Lungs were perfused with normal saline and fixed in 4% paraformaldehyde overnight for immunohistochemistry or snap frozen in liquid nitrogen for protein and RNA analyses. Hearts were dissected and weighed for calculation of the right ventricle to the left ventricle plus septum weight ratio. The same full section in the midportion of the left lung parallel to the hilum was used and embedded in the same manner for lung morphometric analyses. Pulmonary artery muscularization was assessed at ×200 magnification after staining for vWF and SMA by calculating the ratio of the number of muscularized peripheral pulmonary arteries to the number of total peripheral pulmonary arteries (with diameters less than 75 μm) in five random fields per lung (with each field at ×200 magnification). The total number of vessels less than 75 μm was expressed as the number of vessels counted per random microscope field (five random fields per lung at ×200 magnification). Pulmonary arteries with proliferating cells were assessed in PCNA stained lung sections. Vessels with one or more PCNA staining cell were considered to be PNCA positive. All measurements were carried out by investigators blinded to the experimental condition.

[9] = molecular target: T1, HDAC5 (Homo sapiens, UniProt Q9UQL6); assay: HDAC5 degradation in PAECs from a PAH patient (western blot); assay type: cell-based; settings: 1 μM for 24 hr
T1 construct: phosphorylation of endogenously expressed HDAC4 and HDAC5; endogenous in cells; host or cells: PAECs from PAH patient(s)

[10] = system: MEF2 transcriptional targets (Cx37, Cx40 and KLF2); assay: MEF2 transcriptional target expression in PH model rats; assay type: in vivo, rat; settings: PH models, MC1568 50 mg per kg intraperitoneal daily, vs. DMSO
Procedure: Total RNA was extracted with an RNA isolation kit, (miRNeasy RNA, Qiagen). Purified RNA was reverse transcribed with a cDNA synthesis kit (iScript cDNA Synthesis Kit, Bio-Rad). RT-PCR was performed with TaqMan probes for both genes and miRNAs (Applied Biosystems). All miRNA data were normalized to the internal control small RNAs RNU19 and HY3 for human samples and U87 for rat samples. For the mRNA samples, ribosomal 18S was used as an internal control. Individual RT-PCRs were performed on a CFX96 (Bio-Rad) according to the manufacturer's instructions. […]
Right ventricular systolic pressure (RVSP) measurements were performed at the designated time points under isoflurane by inserting a catheter (Millar Instruments) into the right jugular vein as described previously.^21 Lungs were perfused with normal saline and fixed in 4% paraformaldehyde overnight for immunohistochemistry or snap frozen in liquid nitrogen for protein and RNA analyses. […] Pulmonary artery muscularization was assessed at ×200 magnification after staining for vWF and SMA by calculating the ratio of the number of muscularized peripheral pulmonary arteries to the number of total peripheral pulmonary arteries (with diameters less than 75 μm) in five random fields per lung (with each field at ×200 magnification). […] Pulmonary arteries with proliferating cells were assessed in PCNA stained lung sections. […]

[11] = system: FGF2; assay: FGF2 expression in PAH PAECs; assay type: cell-based, human; settings: 1 μM for 24 h
Procedure: (§4) PAECs were isolated from normal and PAH explanted donor lungs, as described previously. Additional control PAECs were obtained from Lonza. PAECs from eleven control subjects, seven subjects with IPAH and three subjects with FPAH were studied. In brief, human pulmonary arteries were dissected from the lungs to the distal small arterioles, and PAECs were harvested from the isolated pulmonary arterial tree. PAECs were grown in EBM-2 basal medium supplemented with EGM-2 (Lonza) on fibronectin-coated plates. Cells were passaged at 70-80% confluency, and primary cultures of passages 3 to 7 were used in experiments. All apelin stimulations were done using apelin-13 peptide at 1 μM (Sigma). TSA (Sigma), MC1568 (Selleck Chemicals and DC Chemicals), TMP269 (DC Chemicals), and Tasquinimod (DC Chemicals) were dissolved in DMSO (Sigma) and used at the indicated doses. Total RNA was extracted with an RNA isolation kit, (miRNeasy RNA, Qiagen). Purified RNA was reverse transcribed with a cDNA synthesis kit (iScript cDNA Synthesis Kit, Bio-Rad). RT-PCR was performed with TaqMan probes for both genes and miRNAs (Applied Biosystems). All miRNA data were normalized to the internal control small RNAs RNU19 and HY3 for human samples and U87 for rat samples. For the mRNA samples, ribosomal 18S was used as an internal control. […]

[12] = system: class IIa HDACs; settings: cited from earlier work
[13] = system: FGF2; assay: FGF2 expression in lungs of PH model rats; assay type: in vivo, rat; settings: two PH models, lung homogenates, MC1568 50 mg per kg intraperitoneal daily
Procedure: as §3
Right ventricular systolic pressure (RVSP) measurements were performed at the designated time points under isoflurane by inserting a catheter (Millar Instruments) into the right jugular vein as described previously.^21 Lungs were perfused with normal saline and fixed in 4% paraformaldehyde overnight for immunohistochemistry or snap frozen in liquid nitrogen for protein and RNA analyses. […] The total number of vessels less than 75 μm was expressed as the number of vessels counted per random microscope field (five random fields per lung at ×200 magnification). Pulmonary arteries with proliferating cells were assessed in PCNA stained lung sections. […]

[14] = system: PAH PAECs; assay: PAH PAEC proliferation assay; assay type: cell-based, human; settings: PAH PAECs vs. DMSO
Procedure: PAECs (5×10^3 cells per well) were plated in a 96-well plate and treated with DMSO or MC1568. Cell proliferation was measured by a colorimetric kit for determining cell viability (CellTiter 96 AQueous One Solution Cell Proliferation Assay, Promega) per manufacturer's protocol.

[15] = molecular target: T2, HDAC4 (Homo sapiens, UniProt P56524); assay: HDAC4 degradation in PAECs from a PAH patient (western blot); assay type: cell-based; settings: 1 μM for 24 hr
T2 construct: phosphorylation of endogenously expressed HDAC4 and HDAC5; endogenous in cells; host or cells: PAECs from PAH patient(s)

[16] = system: MEF2 transcriptional targets (Cx37, Cx40, KLF2); assay: MEF2 target expression in PAH PAECs (RT-PCR); assay type: cell-based, human; settings: 1 μM for 24 h, vs. control/DMSO
Procedure: as §4

[17] = system: PAH PAECs; assay: PAH PAEC migration assay; assay type: cell-based, human; settings: 1 μM
Procedure: PAECs were grown to post-confluence in 24-well plates, and then subjected to injury using a plastic pipette tip. They were then treated with vehicle or MC1568 (1 μM). The cells were allowed to migrate for 8 h, and the gap distance was calculated in at least five randomly selected microscopic fields per each sample.

[18] = Tasquinimod oral gavage 10 mg/kg/day for two weeks
[19] = MCT and SUGEN models, MC1568 50 mg per kg intraperitoneal daily, vs. vehicle (DMSO)
[20] = TMP269 intraperitoneal 50 mg/kg/day for two weeks

T1 sequence (Q9UQL6 whole entry): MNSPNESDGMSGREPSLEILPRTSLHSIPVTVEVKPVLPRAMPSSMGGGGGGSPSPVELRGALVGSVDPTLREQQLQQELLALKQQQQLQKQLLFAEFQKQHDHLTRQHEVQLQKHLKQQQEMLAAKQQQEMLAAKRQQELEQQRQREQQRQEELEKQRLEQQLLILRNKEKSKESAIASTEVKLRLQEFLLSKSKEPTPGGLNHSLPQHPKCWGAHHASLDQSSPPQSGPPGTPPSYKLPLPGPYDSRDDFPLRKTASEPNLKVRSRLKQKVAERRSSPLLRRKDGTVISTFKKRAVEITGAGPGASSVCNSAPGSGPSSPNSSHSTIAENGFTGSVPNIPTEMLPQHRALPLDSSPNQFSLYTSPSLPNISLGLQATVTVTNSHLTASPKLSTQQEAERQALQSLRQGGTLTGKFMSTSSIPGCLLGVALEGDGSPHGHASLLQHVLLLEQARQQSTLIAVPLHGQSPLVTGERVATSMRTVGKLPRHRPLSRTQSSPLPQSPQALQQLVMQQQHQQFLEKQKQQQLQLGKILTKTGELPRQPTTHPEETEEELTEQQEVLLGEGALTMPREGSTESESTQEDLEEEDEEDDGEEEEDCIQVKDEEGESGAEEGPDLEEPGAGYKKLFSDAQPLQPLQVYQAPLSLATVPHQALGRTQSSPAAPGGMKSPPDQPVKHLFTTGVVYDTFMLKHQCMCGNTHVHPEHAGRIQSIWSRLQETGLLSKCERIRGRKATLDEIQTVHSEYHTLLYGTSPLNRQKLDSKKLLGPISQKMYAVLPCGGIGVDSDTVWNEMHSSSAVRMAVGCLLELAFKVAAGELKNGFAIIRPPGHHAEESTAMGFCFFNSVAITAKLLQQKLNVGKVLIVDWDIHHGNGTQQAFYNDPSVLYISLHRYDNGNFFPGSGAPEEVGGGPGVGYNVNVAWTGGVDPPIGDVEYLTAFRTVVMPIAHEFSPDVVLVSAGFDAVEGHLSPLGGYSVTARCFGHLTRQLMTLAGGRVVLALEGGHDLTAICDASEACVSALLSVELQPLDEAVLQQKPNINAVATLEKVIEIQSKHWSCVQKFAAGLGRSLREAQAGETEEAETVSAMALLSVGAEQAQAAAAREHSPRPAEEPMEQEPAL
T2 sequence (P56524 whole entry): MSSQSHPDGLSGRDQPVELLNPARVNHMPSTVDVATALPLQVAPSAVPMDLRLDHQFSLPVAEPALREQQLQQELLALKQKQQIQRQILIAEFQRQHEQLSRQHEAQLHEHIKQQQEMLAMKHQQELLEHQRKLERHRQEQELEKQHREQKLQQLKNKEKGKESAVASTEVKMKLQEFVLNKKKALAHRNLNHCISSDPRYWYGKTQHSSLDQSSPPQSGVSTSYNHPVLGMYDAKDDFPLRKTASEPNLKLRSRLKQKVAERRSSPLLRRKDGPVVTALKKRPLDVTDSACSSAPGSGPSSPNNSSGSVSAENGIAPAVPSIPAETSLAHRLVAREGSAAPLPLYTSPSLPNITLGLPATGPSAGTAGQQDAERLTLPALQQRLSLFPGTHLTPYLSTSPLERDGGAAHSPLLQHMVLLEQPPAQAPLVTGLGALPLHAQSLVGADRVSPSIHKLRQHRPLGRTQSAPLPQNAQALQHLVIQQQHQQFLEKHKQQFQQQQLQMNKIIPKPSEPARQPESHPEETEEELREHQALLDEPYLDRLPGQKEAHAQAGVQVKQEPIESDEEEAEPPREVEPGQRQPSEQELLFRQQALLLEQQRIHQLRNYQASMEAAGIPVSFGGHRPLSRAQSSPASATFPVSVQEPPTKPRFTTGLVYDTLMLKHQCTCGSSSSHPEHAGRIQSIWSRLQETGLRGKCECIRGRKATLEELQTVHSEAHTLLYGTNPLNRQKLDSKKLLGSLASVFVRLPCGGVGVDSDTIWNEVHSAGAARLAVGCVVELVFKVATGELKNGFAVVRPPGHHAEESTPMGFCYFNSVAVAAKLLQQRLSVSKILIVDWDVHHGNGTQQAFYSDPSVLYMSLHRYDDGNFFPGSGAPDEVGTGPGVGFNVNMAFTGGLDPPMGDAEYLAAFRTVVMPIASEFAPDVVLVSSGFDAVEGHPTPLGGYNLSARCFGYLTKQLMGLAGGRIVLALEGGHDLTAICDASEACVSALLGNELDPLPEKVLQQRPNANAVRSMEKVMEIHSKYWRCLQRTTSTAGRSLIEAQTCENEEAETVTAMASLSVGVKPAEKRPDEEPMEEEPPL

## CCCC(CCC)C(=O)O [valproic acid]
[1]
  effect on the right ventricle: detrimental injury to the right ventricle

## CC(/C=C/C(=O)NO)=C\[C@@H](C)C(=O)c1ccc(N(C)C)cc1 [TSA, trichostatin A]
[2]
  cellular apoptosis as assessed by caspase 3 cleavage: marked induction of cellular apoptosis
[1]
  effect on the right ventricle: detrimental injury to the right ventricle

## apelin
[3]
  cytoplasmic translocation of HDAC4-GFP: robust cytoplasmic translocation
[4]
  cytoplasmic translocation of HDAC5-GFP: robust cytoplasmic translocation
[5]
  phosphorylation of HDAC5: marked increase in phosphorylation
[6]
  phosphorylation of HDAC4: marked increase in phosphorylation
[7]
  MEF2 reporter activity: significant augmentation

## COc1cccc2c1c(O)c(C(=O)N(C)c1ccc(C(F)(F)F)cc1)c(=O)n2C [Tasquinimod, 4-hydroxy-5-methoxy-N,1-dimethyl-2-oxo-N-[4-(trifluoromethyl)phenyl]-1,2-dihydroquinoline-3-carboxamide]
[8]; [18]
  right ventricular hypertrophy (right ventricle to left ventricle plus septum weight ratios): decreased
  right ventricular systolic pressures: significantly reduced

## Cn1c(/C=C/C(=O)NO)ccc1/C=C/C(=O)c1cccc(F)c1 [MC1568, (E)-3-(5-((E)-3-(3-fluorophenyl)-3-oxoprop-1-en-1-yl)-1-methyl-1H-pyrrol-2-yl)-N-hydroxyacrylamide]
[9]
  degradation of HDAC5: degradation
[10]
  MEF2 transcriptional targets (Cx37, Cx40 and KLF2) expression: increased
[11]
  expression of FGF2: significant downregulation
[8]; MCT and SUGEN groups, MC1568
  myocardial fibrosis (trichrome staining of right ventricle, gross histology): no evidence of myocardial fibrosis
[8]; [19]
  muscularization of small arterioles: significantly decreased
  right ventricle to left ventricle+septum weight ratios: significant reduction
  right ventricular systolic pressures (RVSP): significant decrease
[8]; MCT and SUGEN models, lungs, MC1568 50 mg per kg intraperitoneal daily, vs. control groups
  PCNA-positive proliferating vascular cells: significantly fewer
[12]
  selectivity for class IIa HDACs over other HDAC classes: selective inhibition of class IIa HDACs, without affecting other HDAC classes
[2]
  cellular apoptosis as assessed by caspase 3 cleavage: did not result in caspase activation
[13]
  expression of FGF2 in the lungs: significantly decreased
[14]
  PAH PAEC proliferation: significant reduction
[15]
  degradation of HDAC4: degradation
[16]
  expression of Cx37, Cx40, and KLF2: significant increased expression
[17]
  PAH PAEC migration: significant reduction

## O=C(NCC1(c2nc(-c3ccccc3)cs2)CCOCC1)c1cccc(-c2noc(C(F)(F)F)n2)c1 [TMP269, N-((4-(4-phenylthiazol-2-yl)tetrahydro-2H-pyran-4-yl)methyl)-3-(5-(trifluoromethyl)-1,2,4-oxadiazol-3-yl)benzamide]
[9]
  degradation of HDAC5: degradation
[8]; [20]
  right ventricular hypertrophy (right ventricle to left ventricle plus septum weight ratios): decreased
  right ventricular systolic pressures: significantly reduced
[15]
  degradation of HDAC4: degradation
[16]
  expression of Cx37, Cx40, and KLF2: significantly increased
[17]
  PAH PAEC migration: inhibited
